# pIC50: −log10 of the molar value. Activity calls are given as the source filed them. No cut-off for these calls is given here.
# Legend:
# Succinate receptor 1 [1] = target: T1, Succinate receptor 1 (Homo sapiens, UniProt Q9BXA5); experiment: Antagonist activity at human GPR91 receptor expressed in CHO-K1 cells co-expressing Galpha and Gqi5 G-protein assessed as inhibition of succinate-induced increase in intracellular calcium level by FLIPR assay; type: functional, cell-based
# T1 sequence (Q9BXA5 whole entry): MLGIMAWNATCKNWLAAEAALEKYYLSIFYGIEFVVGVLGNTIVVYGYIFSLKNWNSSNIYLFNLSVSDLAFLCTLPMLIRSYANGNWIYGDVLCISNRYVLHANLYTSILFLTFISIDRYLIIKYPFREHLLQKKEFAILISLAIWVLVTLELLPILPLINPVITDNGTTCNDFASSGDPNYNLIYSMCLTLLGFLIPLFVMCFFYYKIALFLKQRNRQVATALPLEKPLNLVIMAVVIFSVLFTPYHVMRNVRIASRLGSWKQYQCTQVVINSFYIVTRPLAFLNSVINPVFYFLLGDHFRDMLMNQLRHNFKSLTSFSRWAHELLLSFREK
# Liver microsomes = experiment: Intrinsic clearance in rat liver microsomes preincubated for 5 mins before addition of NADPH measured after 30 mins by LC/MS/MS analysis; type: ADME, Microsome; details: 0.5 h
# [2] = target: T2, Succinate receptor 1 (Homo sapiens) (UniProt Q9BXA5); experiment: Antagonist activity at human GPR91 receptor expressed in CHO-K1 cells co-expressing Galpha and Gqi5 G-protein assessed as inhibition of succinate-induced increase in intracellular calcium level at 10 uM by FLIPR assay; type: functional, cell-based
# T2 sequence (whole entry): T1 sequence (Q9BXA5 whole entry)
# [3] = target: 2-oxoglutarate receptor 1 (Homo sapiens, UniProt Q96P68); experiment: Antagonist activity at human GPR99 receptor expressed in CHO-K1 cells co-expressing Galpha and Gqi5 G-protein assessed as inhibition of succinate-induced increase in intracellular calcium level at by FLIPR assay; type: functional, cell-based
# Chain of 2-oxoglutarate receptor 1 (Q96P68 whole entry, looked up): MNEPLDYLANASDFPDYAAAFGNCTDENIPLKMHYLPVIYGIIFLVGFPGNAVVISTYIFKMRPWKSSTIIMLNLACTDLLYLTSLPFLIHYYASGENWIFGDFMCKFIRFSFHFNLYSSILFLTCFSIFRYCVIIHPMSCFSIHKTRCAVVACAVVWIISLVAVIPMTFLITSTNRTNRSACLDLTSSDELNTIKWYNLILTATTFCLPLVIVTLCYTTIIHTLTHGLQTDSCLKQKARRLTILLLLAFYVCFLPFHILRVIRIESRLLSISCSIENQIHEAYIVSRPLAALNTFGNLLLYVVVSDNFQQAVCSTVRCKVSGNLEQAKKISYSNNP
# [4] = Cmax in Wistar rat at 5 mg/kg, iv by LC/MS/MS analysis; type: ADME, organism-based; set-up: dose 5 mg/kg, route intravenous; details: in vivo
# [5] = Plasma clearance in Wistar rat at 5 mg/kg, iv; type: ADME, organism-based; set-up: dose 5 mg/kg, route intravenous
# [6] = Terminal half life in Wistar rat at 5 mg/kg, iv; type: ADME, organism-based; set-up: dose 5 mg/kg, route intravenous; details: in vivo, read-out: beta t1/2 (converted)
# [7] = Volume of distribution at steady state in Wistar rat at 5 mg/kg, iv; type: ADME, organism-based; set-up: dose 5 mg/kg, route intravenous; details: in vivo, read-out: Vdss
# Succinate receptor 1 [8] = target: T3, Succinate receptor 1 (Rattus norvegicus, UniProt Q6IYF9); experiment: Antagonist activity at rat GPR91 receptor expressed in CHO-K1 cells co-expressing Galpha and Gqi5 G-protein assessed as inhibition of succinate-induced increase in intracellular calcium level by FLIPR assay; type: functional, cell-based
# T3 sequence (Q6IYF9 whole entry): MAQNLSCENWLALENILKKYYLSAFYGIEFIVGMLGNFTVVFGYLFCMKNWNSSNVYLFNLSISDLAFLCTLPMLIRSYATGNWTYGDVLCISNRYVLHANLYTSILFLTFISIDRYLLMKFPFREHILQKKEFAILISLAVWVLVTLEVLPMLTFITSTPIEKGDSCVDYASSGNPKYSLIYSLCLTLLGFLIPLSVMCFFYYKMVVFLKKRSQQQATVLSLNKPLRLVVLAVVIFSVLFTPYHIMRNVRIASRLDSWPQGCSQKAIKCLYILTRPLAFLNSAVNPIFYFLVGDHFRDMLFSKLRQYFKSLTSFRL
# [9] = Cmax in Wistar rat at 50 mg/kg, ip by LC/MS/MS analysis; type: ADME, organism-based; set-up: dose 50 mg/kg, route intraperitoneal; details: in vivo
# [10] = AUC (0 to 8 hrs) in Wistar rat plasma at 50 mg/kg, ip; type: ADME, organism-based; set-up: time < 8 hr, dose 50 mg/kg, route intraperitoneal
# [11] = Tmax in Wistar rat at 50 mg/kg, ip; type: ADME, organism-based; set-up: dose 50 mg/kg, route intraperitoneal; details: in vivo
# [12] = Plasma concentration in Wistar rat plasma at 50 mg/kg, ip at 8 hrs; type: ADME, organism-based; set-up: dose 50 mg/kg, route intraperitoneal
Structure (SMILES),pIC50 (Succinate receptor 1 [1]),Intrinsic clearance (Liver microsomes) [nmol/min/mg],further results
Fc1ccc(-c2ccc(-c3nnc(CCCc4ccc5cccnc5n4)[nH]3)cc2)cc1Cl,6.00,0.14,–
CCc1cccc(-c2ccc(CNC(=O)CCCc3ccc4cccnc4n3)cc2)c1,7.19,0.4,–
FC(F)(F)c1ccc(-c2nnc(CCCCc3ccc4cccnc4n3)o2)cc1,5.52,0.07,–
N#Cc1cccc(-c2ccc(CNC(=O)CCCc3ccc4cccnc4n3)cc2)c1,–,0.1,inhibition [2]: inactive
O=C(CCCc1ccc2cccnc2n1)NCc1ccc(-c2cccc(C(F)(F)F)c2)cc1F,7.39,0.34,–
FC(F)(F)Oc1ccc(-c2nnc(CCCCc3ccc4cccnc4n3)o2)cc1,5.52,–,–
O=C(CCCc1ccc2cccnc2n1)NCc1nnc(-c2ccc(F)c(C(F)(F)F)c2)s1,6.57,–,–
O=C(NCc1ccc(-c2ccccc2)cc1)c1ccc(-c2ccc3cccnc3n2)cc1,–,0.02,inhibition [2]: inactive
C[C@H](NC(=O)C(F)(F)c1ccc(-c2ccc3cccnc3n2)cc1)c1ccc(-c2ccc(F)c(C(F)(F)F)c2)cc1,7.72,0.14,–
CC(NC(=O)CCCc1ccc2cccnc2n1)c1ccc(-c2cccc(C(F)(F)F)c2)cc1 (configuration not stated),7.80,0.25,–
NC(=O)c1cccc(-c2ccc(CNC(=O)CCCc3ccc4cccnc4n3)cc2)c1,–,0.04,inhibition [2]: inactive
O=C(CCCc1ccc2cccnc2n1)NCc1ccc(-c2ccc(F)c(C(F)(F)F)c2)cc1,7.66,0.1,–
O=C(CCCc1ccc2cccnc2n1)NCc1ccc(-c2ccc(F)c(C(F)(F)F)c2)nn1,6.14,–,–
O=C(CCCc1ccc2cccnc2n1)NCc1ccc(-c2cccc(F)c2C(=O)O)cc1F,–,0.08,inhibition [2]: inactive
C[C@H](NC(=O)C(C)(C)c1ccc(-c2ccc3cccnc3n2)cc1)c1ccc(-c2ccc(F)c(C(F)(F)F)c2)cc1,7.85,0.25,–
COc1cccc(-c2ccc(CNC(=O)CCCc3ccc4cccnc4n3)cc2)c1,6.00,0.6,–
O=C(NCc1ccc(-c2ccc(F)c(C(F)(F)F)c2)cc1)C(O)(c1ccc(-c2ccc3cccnc3n2)cc1)C(F)(F)F (configuration not stated),7.47,0.2,–
O=C(Cc1ccc(-c2ccc3cccnc3n2)cc1)NCc1ccc(-c2ccc(F)c(C(F)(F)F)c2)cc1,7.12,0.28,–
Clc1cccc(-c2ccc(-c3nnc(CCCc4ccc5cccnc5n4)s3)cc2)c1,5.52,–,–
C[C@H](NC(=O)C(O)c1ccc(-c2ccc3cccnc3n2)cc1)c1ccc(-c2ccc(F)c(C(F)(F)F)c2)cc1 (some centres not stated),7.74,0.2,–
Fc1ccc(-c2ccc(-c3nnc(CCCc4ccc5cccnc5n4)o3)cc2)cc1Cl,7.00,0.2,–
Fc1ccc(-c2nnc(CCCCc3ccc4cccnc4n3)o2)cc1OC(F)(F)F,5.40,–,–
C[C@H](NC(=O)CCCc1ccc2cccnc2n1)c1ccc(-c2cccc(Cl)c2)cc1,7.96,0.42,pIC50 [3]: 5.70; Cmax [4]: 19 µM; clearance [5]: 14.8 mL/min/kg; half-life [6]: 0.8 h; Vd [7]: 0.7 L/kg; pIC50 (Succinate receptor 1 [8]): 7.00
O=C(O)Cc1cccc(-c2ccc(CNC(=O)CCCc3ccc4cccnc4n3)cc2)c1,–,–,inhibition [2]: inactive
O=C(CCCc1ccc2cccnc2n1)NCc1csc(-c2cccc(Cl)c2)n1,6.15,0.4,–
O=C(CCCc1ccc2cccnc2n1)NCc1ccc(-c2cccc(Cl)c2)cc1,7.40,0.22,pIC50 [3]: 5.15; Cmax [9]: 17.8 µM; Cmax [4]: 82.7 µM; AUC(0-t) at 8 h [10]: 119 µM·h; clearance [5]: 4.4 mL/min/kg; Tmax [11]: 3.3 h; half-life [6]: 1.2 h; Vd [7]: 0.2 L/kg; pIC50 (Succinate receptor 1 [8]): 6.94; concentration at 8 h [12]: 15 µM

Structure (SMILES),pIC50 (Succinate receptor 1 [1]),Intrinsic clearance (Liver microsomes) [nmol/min/mg],further results
CS(=O)(=O)c1cccc(-c2ccc(CNC(=O)CCCc3ccc4cccnc4n3)cc2)c1,–,0.1,inhibition [2]: inactive
FC(F)(F)c1cccc(-c2ccc(-c3nnc(CCCc4ccc5cccnc5n4)o3)cc2)c1,6.70,0.3,–
C[C@H](NC(=O)C(O)(c1ccc(-c2ccc3cccnc3n2)cc1)C(F)(F)F)c1ccc(-c2ccc(F)c(C(F)(F)F)c2)cc1 (some centres not stated),7.80,0.17,–
CC(=O)Nc1cccc(-c2ccc(CNC(=O)CCCc3ccc4cccnc4n3)cc2)c1,–,–,inhibition [2]: inactive
Clc1cccc(-c2ccc(-c3nnc(CCCc4ccc5cccnc5n4)o3)cc2)c1,7.40,0.3,pIC50 [3]: 5.30; Cmax [4]: 9.3 µM; clearance [5]: 51 mL/min/kg; half-life [6]: 0.9 h; Vd [7]: 1.9 L/kg; pIC50 (Succinate receptor 1 [8]): 7.17
Cc1cc(-c2ccc(CNC(=O)CCCc3ccc4cccnc4n3)cc2)ccc1Cl,6.52,–,–
O=C(CCCc1ccc2cccnc2n1)NCc1ccc(-c2ccccc2)cc1,6.00,0.17,–
O=C(CCCc1ccc2cccnc2n1)NCc1nc(-c2cccc(Cl)c2)cs1,6.52,0.18,–
Fc1ccc(-c2nnc(CCCCc3ccc4cccnc4n3)o2)cc1C(F)(F)F,5.70,0.16,–
O=C(CCCc1ccc2cccnc2n1)NCc1cnc(-c2ccc(F)c(C(F)(F)F)c2)nc1,7.31,0.2,–
O=C(CCCc1ccc2cccnc2n1)NCc1ccc(-c2ccc(F)c(Cl)c2)cc1,7.42,0.2,–
O=C(CCCc1ccc2cccnc2n1)NCc1cc(-c2cccc(Cl)c2)no1,7.19,0.09,–
NC(C(=O)NCc1ccc(-c2ccc(F)c(C(F)(F)F)c2)cc1)c1ccc(-c2ccc3cccnc3n2)cc1 (configuration not stated),6.48,0.15,–
FC(F)(F)c1ccc(-c2nnc(CCCCc3ccc4cccnc4n3)o2)cc1C(F)(F)F,6.77,0.3,–
O=C(CCCc1ccc2cccnc2n1)NCc1cc(-c2ccc(F)c(Cl)c2)no1,7.05,0.11,–
CCOC(=O)c1cccc(-c2ccc(CNC(=O)CCCc3ccc4cccnc4n3)cc2)c1,–,–,inhibition [2]: inactive
O=C(CCCc1ccc2cccnc2n1)NCc1ccc(-c2cccc(OC(F)(F)F)c2)cc1,6.30,0.2,–
O=C(CCCc1ccc2cccnc2n1)NCc1cnn(-c2ccc(F)c(C(F)(F)F)c2)c1,6.68,0.18,–
Clc1ccc(-c2nnc(CCCCc3ccc4cccnc4n3)o2)cc1,< 5.52,–,–
CC(C)(C(=O)NCc1ccc(-c2ccc(F)c(C(F)(F)F)c2)cc1)c1ccc(-c2ccc3cccnc3n2)cc1,7.77,0.28,–
O=C(CCCc1ccc2cccnc2n1)NCc1ccc(-c2cccc(CO)c2)cc1,–,0.1,inhibition [2]: inactive
O=C(CCCc1ccc2cccnc2n1)NCc1nnc(-c2ccc(F)c(C(F)(F)F)c2)o1,6.00,–,–
O=C(CCCc1ccc2cccnc2n1)NCc1ccc(-c2cccc(C(=O)O)c2)cc1,–,0.03,inhibition [2]: inactive
O=C(Cc1ccc(-c2ccc3cccnc3n2)cc1)NCc1ccc(-c2ccc(F)c(Cl)c2)cc1,7.51,0.84,–
O=C(CCCc1ccc2cccnc2n1)NCc1ncc(-c2ccc(F)c(C(F)(F)F)c2)cn1,6.70,–,–

# Reference: ChEMBL document CHEMBL2150920, “Discovery of a potent and selective small molecule hGPR91 antagonist” (Bioorg Med Chem Lett, 2011)
